In brackets after ≈: the same amount, converted by molar mass.
Assays:
Type in all cases: cell-based
[1] = test system: E. coli; test: persistent antimicrobial activity of treated glass surface, colony (plate) counting method, E. coli
Protocol: (§1) The resulting products from the above examples were used for treating a glass surface respectively, a superhydrophilic surface at a contact angle of less than 10° […]. was all obtained. In addition, they were tested for antimicrobial activity and persistent antimicrobial activity using the colony counting method, and the results are shown in table 1.

[2] = test system: S. aureas; test: persistent antimicrobial activity of treated glass surface, colony (plate) counting method, S. aureas; set-up: concentration or dose not given beside the values
Protocol: as §1

[3] = test system: E. coli (8099); test: minimum inhibitory / bactericidal concentration for E. coli
[4] = test system: S. aureas (ATCC6538); test: minimum inhibitory / bactericidal concentration for S. aureas

Compound	persistent antimicrobial activity (plate counting method) ([1]; wash times 0) [%]	persistent antimicrobial activity (plate counting method) ([1]; wash times 1) [%]	persistent antimicrobial activity (plate counting method) ([1]; wash times 5) [%]	persistent antimicrobial activity (plate counting method) ([1]; wash times 10) [%]	persistent antimicrobial activity (plate counting method) ([1]; wash times 30) [%]	persistent antimicrobial activity (plate counting method) ([2]; wash times 0) [%]	persistent antimicrobial activity (plate counting method) ([2]; wash times 1) [%]	persistent antimicrobial activity (plate counting method) ([2]; wash times 5) [%]	persistent antimicrobial activity (plate counting method) ([2]; wash times 10) [%]	persistent antimicrobial activity (plate counting method) ([2]; wash times 30) [%]	minimum bactericidal concentration (MBC) [3] [mg/mL]	minimum inhibitory concentration (MIC) [3] [mg/mL]	minimum bactericidal concentration (MBC) [4] [mg/mL]	minimum inhibitory concentration (MIC) [4] [mg/mL]
CCC[N+](CCC)(CCC[Si](OC)(OC)OC)CCCS(=O)(=O)[O-] [Embodiment 8, (CH3O)3Si(CH2)3^+N(CH2CH2CH3)2(CH2)3SO3^−]	99.9	99.7	99.3	98.7	98.2	99.9	99.9	99.5	98.8	98.5	20 (≈ 51.9 mM)	15 (≈ 38.9 mM)	20 (≈ 51.9 mM)	15 (≈ 38.9 mM)
CC[N+](CC)(CCC[Si](OC)(OC)OC)CCS(=O)(=O)[O-] [Embodiment 6, (CH3O)3Si(CH2)3^+N(CH2CH3)2(CH2)2SO3^−]	99.9	99.8	99.3	97.9	97.2	99.9	99.9	99.5	98.2	97.6	25 (≈ 72.8 mM)	20 (≈ 58.2 mM)	25 (≈ 72.8 mM)	20 (≈ 58.2 mM)
CCO[Si](CCC[N+](C)(C)CCCS(=O)(=O)[O-])(OCC)OCC [Embodiment 1, (CH3CH2O)3Si(CH2)3^+N(CH3)2(CH2)3SO3^−]	99.9	99.8	99.5	99.0	99.2	99.9	99.9	99.6	99.5	99.0	20 (≈ 53.8 mM)	15 (≈ 40.4 mM)	20 (≈ 53.8 mM)	15 (≈ 40.4 mM)
CCO[Si](C)(CCC[N+](C)(C)CC(=O)[O-])OCC [Embodiment 3, (CH3CH2O)2SiCH3(CH2)3^+N(CH3)2CH2CO2^−]	99.9	99.8	99.2	97.9	97.2	99.9	99.9	99.5	98.2	97.6	25 (≈ 90.1 mM)	20 (≈ 72.1 mM)	25 (≈ 90.1 mM)	20 (≈ 72.1 mM)
CO[Si](CCCNCCNCCCS(=O)(=O)O)(OC)OC [Embodiment 7, (CH3O)3Si(CH2)3NH(CH2)2^+NH2(CH2)3SO3^−]	99.9	99.5	99.1	98.6	98.0	99.9	99.8	99.6	99.1	98.2	30 (≈ 87.1 mM)	25 (≈ 72.6 mM)	30 (≈ 87.1 mM)	25 (≈ 72.6 mM)
(CH3CH2O)2SiCH3(CH2CH3)3^+N(CH3)2(CH2)3SO3^− [Embodiment 2]	99.9	99.9	99.3	98.9	98.5	99.9	99.9	99.9	99.6	99.0	30	25	30	25
CC[N+](CC)(CCC[Si](OC)(OC)OC)CCCS(=O)(=O)[O-] [Embodiment 5, (CH3O)3Si(CH2)3^+N(CH2CH3)2(CH2)3SO3^−]	99.9	99.7	99.0	98.7	98.0	99.9	99.9	99.5	98.8	98.2	20 (≈ 55.9 mM)	15 (≈ 42 mM)	20 (≈ 55.9 mM)	15 (≈ 42 mM)
CCO[Si](C)(CCC[N+](C)(C)CCC(=O)[O-])OCC [Embodiment 4, (CH3CH2O)2SiCH3(CH2)3^+N(CH3)2(CH2)2CO2^−]	99.9	99.8	99.0	98.6	98.1	99.9	99.9	99.6	98.9	98.3	20 (≈ 68.6 mM)	10 (≈ 34.3 mM)	20 (≈ 68.6 mM)	10 (≈ 34.3 mM)

Reference: patent US8623843B2, “Antimicrobial compound and preparation thereof” (Shenzhen University, priority 2009, dated 2014)
